Experiments:
Conditions in all cases: 72 h
HepG2 [1] = assay: drug sensitivity score (DSS) for viability; higher = more toxic; extreme values may be limits of the assay
Caco-2 [2] = assay: as above
U2OS [3] = assay: as above
Vero E6 [4] = assay: as above
Calu-3 [5] = assay: as above
HepG2 [6] = assay: cell viability relative to DMSO; higher = less toxic
Caco-2 [7] = assay: as above
U2OS [8] = assay: as above
Vero E6 [9] = assay: as above
Calu-3 [10] = assay: as above
HepG2 [11] = assay: relative viability EC50 (midpoint between 100% and the lowest measured viability); higher = less toxic
Caco-2 [12] = assay: as above
U2OS [13] = assay: as above
Vero E6 [14] = assay: as above
Calu-3 [15] = assay: as above

Structure (SMILES) | drug sensitivity score (HepG2 [1]) | drug sensitivity score (Caco-2 [2]) | drug sensitivity score (U2OS [3]) | drug sensitivity score (Vero E6 [4]) | drug sensitivity score (Calu-3 [5]) | cell viability (HepG2 [6]; 1 nM) [%] | cell viability (HepG2 [6]; 10 nM) [%] | cell viability (HepG2 [6]; 100 nM) [%] | cell viability (HepG2 [6]; 1000 nM) [%] | cell viability (HepG2 [6]; 10000 nM) [%] | cell viability (Caco-2 [7]; 1 nM) [%] | cell viability (Caco-2 [7]; 10 nM) [%] | cell viability (Caco-2 [7]; 100 nM) [%] | cell viability (Caco-2 [7]; 1000 nM) [%] | cell viability (Caco-2 [7]; 10000 nM) [%] | cell viability (U2OS [8]; 1 nM) [%] | cell viability (U2OS [8]; 10 nM) [%] | cell viability (U2OS [8]; 100 nM) [%] | cell viability (U2OS [8]; 1000 nM) [%] | cell viability (U2OS [8]; 10000 nM) [%] | cell viability (Vero E6 [9]; 1 nM) [%] | cell viability (Vero E6 [9]; 10 nM) [%] | cell viability (Vero E6 [9]; 100 nM) [%] | cell viability (Vero E6 [9]; 1000 nM) [%] | cell viability (Vero E6 [9]; 10000 nM) [%] | cell viability (Calu-3 [10]; 1 nM) [%] | cell viability (Calu-3 [10]; 10 nM) [%] | cell viability (Calu-3 [10]; 100 nM) [%] | cell viability (Calu-3 [10]; 1000 nM) [%] | cell viability (Calu-3 [10]; 10000 nM) [%] | relative viability EC50 (HepG2 [11]) [µM] | relative viability EC50 (Caco-2 [12]) [µM] | relative viability EC50 (U2OS [13]) [µM] | relative viability EC50 (Vero E6 [14]) [µM] | relative viability EC50 (Calu-3 [15]) [µM]
c1ccc2c(CC3=NCCN3)cccc2c1 [naphazoline] | 0 | 0 | 0 | 0 | 0 | 96.1 | 102 | 102 | 98.4 | 118 | 95.6 | 102 | 90.1 | 101 | 93.2 | 97 | 101 | 94.9 | 97.8 | 93.9 | 102 | 99.4 | 95.5 | 97.7 | 93.3 | 93.6 | 93.6 | 109 | 107 | 89 | > 10 | > 10 | > 10 | > 10 | > 10
C[C@@H]1O[C@@H](O[C@H]2[C@H](Oc3cc(O)c(C(=O)CCc4ccc(O)cc4)c(O)c3)O[C@H](CO)[C@@H](O)[C@@H]2O)[C@H](O)[C@H](O)[C@H]1O [naringin-dihydrochalcone] | 0 | 0 | 0 | 0 | 0 | 110 | 93.2 | 105 | 90.9 | 101 | 94.2 | 92.2 | 99.5 | 102 | 96.3 | 93.1 | 96.2 | 94.2 | 102 | 95.6 | 104 | 104 | 104 | 102 | 99.9 | 95.6 | 90.9 | 92.7 | 101 | 105 | > 10 | > 10 | > 10 | > 10 | > 10
COC(=O)c1ccc2c(c1)NC(=O)/C2=C(\Nc1ccc(N(C)C(=O)CN2CCN(C)CC2)cc1)c1ccccc1 [nintedanib] | 1.5 | 0 | 0 | 0 | 0 | 98.9 | 101 | 103 | 91.2 | 80.3 | 93.1 | 108 | 102 | 94.7 | 107 | 101 | 101 | 97.1 | 104 | 94 | 110 | 102 | 106 | 100 | 98.5 | 106 | 98 | 102 | 101 | 90.4 | > 10 | > 10 | > 10 | > 10 | > 10
COc1ccc2[nH]c(SCc3ncc(C)c(OC)c3C)nc2c1 [omeprazole-sulfide] | 0 | 0 | 0 | 0 | 0 | 105 | 99.6 | 99 | 94.4 | 102 | 104 | 96.1 | 113 | 96 | 101 | 96.8 | 97.8 | 96.5 | 102 | 96.8 | 106 | 89.6 | 87.8 | 94.9 | 95.7 | 89.7 | 102 | 101 | 103 | 90.6 | > 10 | > 10 | > 10 | > 10 | > 10
CNC(=O)c1ccc2cc([C@@]3(O)CCn4cncc43)ccc2c1 [orteronel] | 0 | 0 | 0 | 0 | 0 | 103 | 104 | 90.1 | 104 | 90 | 88.1 | 91.3 | 94.2 | 99.8 | 96.6 | 99.8 | 99 | 101 | 99 | 98.9 | 99.7 | 104 | 99.8 | 100 | 94.6 | 102 | 108 | 99.4 | 105 | 108 | > 10 | > 10 | > 10 | > 10 | > 10
NCCc1cc(O)c(O)cc1O [oxidopamine] | 0 | 0 | 0 | 0 | 0 | 97.4 | 104 | 114 | 107 | 98.7 | 86.7 | 93.3 | 90.7 | 95.4 | 100 | 96 | 102 | 94.8 | 104 | 103 | 97.3 | 99.6 | 96.6 | 91.5 | 105 | 91.1 | 101 | 108 | 108 | 109 | > 10 | > 10 | > 10 | > 10 | > 10

From the supplement of paper PMC13380429
